Source: a melting point compilation (Tetko et al.; mined from patent text by program, amines drawn as free bases though some values may be those of a salt)

Row | melting point | SMILES
1 | 167 to 169 °C | CS(=O)(=O)N(c1cccc(CN2CCN(C(c3ccccc3)c3ccccc3)CC2)n1)S(C)(=O)=O
2 | 96 to 99 °C | CC(=O)OCCOCn1cnc2c(Cl)nc(Cl)nc21
3 | 203 to 205 °C | NS(=O)(=O)c1cc(CCNC(=O)/C=C/c2cccs2)ccc1OCCOC(F)(F)F
4 | 111 to 112 °C | COC(=O)c1nccnc1N(C)c1ccc(Cl)cc1[N+](=O)[O-]
5 | 102 to 109 °C | CC(C)N(CCC(c1cccs1)c1ccc(O)cc1O)C(C)C (stereo not given)
6 | 131 to 132 °C | CCOC(=O)c1c(C)nc(S)c([N+](=O)[O-])c1NCCCN(C)C
7 | 150 to 152 °C | CN(Cc1cc2c3c(c1)c(=O)c(C(=O)NCc1ccc(F)cc1)cn3CC(=O)N2C)C[C@@H](O)c1ccco1
8 | 180 °C | N#Cc1ccc(N(Cc2ccc(O)cc2)n2ccnc2)cc1
9 | 127 °C | CCN(CC)CCSC1=C(C#N)C(c2ccccc2)(c2cccc(C(F)(F)F)c2)C(=O)N1 (stereo not given)
10 | 116 °C | CSc1cc(C(F)(F)F)cc(Cl)c1-n1c(Br)nc(Cl)c1S(=O)(=O)C(F)F
11 | 238 to 241 °C | CC(C)(CO)NS(=O)(=O)c1cc(NC(=O)c2cnn3c(C4CC4)cc(-c4ccc(Cl)cc4)nc23)c(Cl)s1
12 | 145 to 147 °C | COC(=O)c1ccc2c(c1)Oc1ccc(C(=O)OC)cc1C2(C)C
13 | 175 to 177 °C | CCc1ncnc(O)c1Br
14 | 101 to 103 °C | CCc1c(OC)nc(OC)nc1C(=O)c1cc(C)cc(CO)c1
15 | 128 to 130 °C | COC(=O)C(C)(C)OCc1cc(-c2ccc(Cl)s2)no1
16 | 178 to 179 °C | CCOC(=O)C[C@@H](C)NC(=O)N[C@H]1CCN(c2ccc(C#N)cc2)C1=O
17 | 116 to 117 °C | CC(=O)CCc1ccc2c(c1)Cc1cc(N)ccc1-2
18 | 218 to 220 °C | COc1ccc(-c2c(NC(=O)Nc3ccc(F)cc3F)cnc3ccc(Cl)cc23)c(O)c1OC
19 | 163 to 165 °C | CNC(=O)N(O)CC#Cc1cccc(C2=N[C@H](c3ccccc3)CO2)c1
20 | 250 to 253 °C | COc1cc2c3c(cccc3c1Br)C(=O)N(O)C2=O
21 | 246 °C | CS(=O)(=O)Nc1nccc(Oc2ccc3c(C(=O)Nc4ccc(F)c(C(F)(F)F)c4)cccc3c2)n1
22 | 142 to 144 °C | CCC(CC)Oc1ccc(-n2cc(C(=O)O)cn2)cc1C#N
23 | 167 to 169 °C | Cc1ccccc1CC(=NC#N)NC(NC(=O)Cc1ccc2c(c1)OCO2)C(C)(C)C (stereo not given)
24 | 92 to 94 °C | CC1Nc2ccccc2NC1=S (stereo not given)

Row | melting point | SMILES
25 | 142 to 143 °C | CCCCNc1cc(CNc2ccccc2)cc(S(N)(=O)=O)c1Oc1ccccc1
26 | 51 to 53 °C | N#CSCOc1c(Cl)cc(Cl)c(Cl)c1Cl
27 | 94 to 95 °C | COc1noc2c(C)cc(C#CCCN3CCOC3=O)cc12
28 | 200 to 202 °C | OC(CN1CCNC1=S)c1cccnc1 (stereo not given)
29 | 205 °C | COc1ccccc1CC(=O)N1C[C@@H]2[C@H](F)CCC(c3ccccc3)(c3ccccc3)[C@@H]2C1
30 | 78 to 80 °C | Cc1ccc(Oc2c(C)cc([N+](=O)[O-])c(C)c2Cl)c(C)c1
31 | 162 to 164 °C | CC1(O)NC(=O)OC12CCN(Cc1ccccc1)CC2 (stereo not given)
32 | 255 to 257 °C | Cc1cc2c3c(cccc3c1Br)C(=O)N(O)C2=O
33 | 289 to 291 °C | Cc1nc2c(-c3ccc(N4CCN(C)CC4)cc3)cnn2c(N)c1-c1ccc(F)cc1
34 | 85 to 88 °C | Cc1c(C(=O)c2ccc(F)cc2)c(C)n(C)c1C(=O)c1cccnc1
35 | 164 to 166 °C | COc1cc(CC#Cc2c(C)nc(N)nc2N)cc(OC)c1OC
36 | 144 to 146 °C | CCOC(=O)c1cc(C)c(Cl)nc1Nc1ccc(I)cc1
37 | 210 to 211 °C | O=C1C(=O)c2ccc(Br)cc2C2=C1SCC1(CCN(Cc3ccc(F)cc3)CC1)O2
38 | 144 °C | CC(C)(C)OC(=O)NCC(=O)NNc1ccc(N)cc1
39 | 122 °C | O=C(NC(CS)Cc1ccccc1)N1CCN(c2ccccc2)CC1 (single isomer, unassigned; (+))
40 | 136 to 138 °C | CC(C)(C)OC(=O)C(=[N+]=[N-])C(=O)C(C(=O)OC(C)(C)C)[C@H]1NC(=O)[C@@H]1Br (stereo not given in full)
41 | 133 to 135 °C | O=[N+]([O-])c1c(Br)nn(CCO)c1NCc1ccccc1
42 | 325 to 333 °C | O=C1CCC(c2ccc3[nH]c(-c4ccsc4)cc3c2)=NN1
43 | 153 to 154 °C | CCN1CCNC(=O)C1c1ccc(N)cc1 (stereo not given)
44 | 124 to 125 °C | CSc1nc(O)c(NC(=O)c2ccco2)c(O)n1
45 | 99 to 103 °C | O=C(Nc1ccc2scnc2c1C1CCN(C/C=C/c2ccc(Cl)cc2)CC1)c1ccnc(Cl)c1
46 | 228 to 230 °C | O=C(O)Cc1cccc(NC(=O)NC2C(=O)N(CC(=O)N3CCCC3)c3ccccc3N(CC(=O)N3CCCC3)C2=O)c1
47 | 252 to 255 °C | Nc1ncnc2ncn(Cc3ccccc3)c12
48 | 140 to 142 °C | O=C(N[C@H](Cc1cccc(OC(F)(F)C(F)F)c1)[C@@H](O)c1ccc(F)nc1)c1cccc2c1C=CCCC2 (racemic)

Row | melting point | SMILES
49 | 286 to 289 °C | Cn1cc(C2=C(c3c4n(c5ccccc35)CCCC4)C(=O)NC2=O)c2ccccc21
50 | 136 to 139 °C | O=C(O)CC(CSc1nc2ccccc2s1)C(=O)O (stereo not given)
51 | 138 to 140 °C | Clc1ccccc1-c1cccc2c1OC(CNCC1CC1)CO2 (stereo not given)
52 | 215 to 220 °C | COc1cccc2sc(NN)nc12
53 | 75 to 76 °C | C=CCC(O)(Cn1cncn1)C1(Cl)CC1 (stereo not given)
54 | 121 °C | C=C(Cc1ccc2c(c1)OCO2)C(=O)O
55 | 336 to 338 °C | COc1cc2c(=O)c(-c3ccc(O)cc3)coc2cc1O
56 | 263 to 264 °C | COc1cc2c(=O)c(S(C)=O)cn(C)c2cc1F (stereo not given)
57 | 58 to 59 °C | COc1ccc2cc(C(C)C(=O)OCc3ccc(OC(=O)OCC[Si](C)(C)C)cc3)ccc2c1 (stereo not given)
58 | 231 to 232 °C | O=c1ccn2ncc(-c3cccs3)c2[nH]1
59 | 89 to 91 °C | CC1Cc2cc3c(cc2C(c2ccccc2)N1)OCO3 (stereo not given)
60 | 182 to 186 °C | COC(=O)c1ccc(NC(C)=O)c(NC(=O)COC(C)=O)c1
61 | 129 to 131 °C | CCOC(=O)C=Cc1ccccc1NC(=O)c1ccc(OCCCCc2ccccc2)cc1
62 | 128 to 133 °C | CCOC(=O)c1ccc(NCCOc2ccc(Br)cc2)cc1
63 | 130 °C | Nc1cc(=O)n(Cc2cccc(C(F)(F)F)c2)[nH]1
64 | 159 to 160 °C | CC(C(=O)O)c1cccc2c1Oc1ccccc1CC2=O (stereo not given)
65 | 183 to 185 °C | CC(=O)SCCC(=O)N1N=C(c2ccc(S(N)(=O)=O)cc2)CC1C(=O)O (stereo not given)
66 | 111 to 113 °C | N#Cc1c(N2CCCC2)cccc1[N+](=O)[O-]
67 | 157 to 158 °C | CN1C(=O)OC(C)(C)c2cc(-c3cc(F)cc(Br)c3)ccc21
68 | > 300 °C | C=Cc1[nH]c(=O)c2c(ccc3nc(Nc4c(Cl)cccc4Cl)n(C)c32)c1C
69 | 158 to 161 °C | COc1cc(CBr)c(OC)c(CCc2cc(OC)cc(CBr)c2OC)c1
70 | 116 to 118 °C | CC(=O)OC1CC2C=CC3C4CCC(C(C)CCCC(C)C)C4(C)CCC3C2(C)C(OC(C)=O)C1 (stereo not given)
71 | 160 to 164 °C | O=C1CCCc2c1c1cccc3c1n2CCC3
72 | 142 to 143 °C | COc1cc(-c2ncn(C)c2-c2scc(OC)c2OC)cc(OC)c1OC

Row | melting point | SMILES
73 | 164 °C | CC(C)c1cc(O)nc(-c2ccc(Cl)cc2)n1
74 | 62 to 64 °C | CS(=O)(=O)Nc1ccc(CCCOCCCCCCNCC(O)c2cc(Cl)c(N)c(Cl)c2)cc1 (stereo not given)
75 | 210 to 211 °C | Clc1ccc(-c2c(-c3ccncc3)nc(-c3c(Cl)cccc3Cl)n2C2CC2)cc1
76 | 145 to 146 °C | OCCn1ccc(NC(=S)NCC(F)(F)F)n1
77 | 210 to 215 °C | CCCN=C(N)Nc1ccnc(SCCCC(=N)NC#N)n1
78 | 146 °C | CC(=O)n1nc(SCc2ccccc2)nc1N
79 | 166 to 169 °C | CCOCc1nc(C(C)(C)O)c(C(=O)O)n1Cc1ccc(-c2ccccc2C(=O)O)cc1
80 | 168 to 171 °C | CN1C2=NCCN2C(=O)c2cccnc21
81 | 95 to 105 °C | Nc1ccc(C(=O)N2CCOCC2)cc1OCc1ccc(-c2ccccc2)c(-c2nnnn2C(c2ccccc2)(c2ccccc2)c2ccccc2)c1
82 | 82 to 84 °C | COc1cc(Oc2cccc(C(F)(F)F)c2)nc(C(=O)NCCSCCF)c1
83 | 76 °C | C=Cc1cc(Br)c(OC(C)=O)c(Br)c1
84 | 104 to 106 °C | COc1ccc(C2Cc3cc(OC)c(OC)c(OC)c3C2=O)cc1 (stereo not given)
85 | 193 to 197 °C | CC#CCOc1cc2ncc(C#N)c(Nc3cc(OC)c(Cl)cc3Cl)c2cc1OC
86 | 164 to 167 °C | Nc1nc2ccc(CCN3CCC(Oc4ccccc4)CC3)cc2s1
87 | 115 to 117 °C | CCc1sc(N2C(=O)c3ccccc3C2=O)c(C(=O)c2ccc(Cl)cc2)c1C
88 | 198 to 200 °C | O=C1CCC(N2Cc3c(OCc4ccc(CN5CCC(c6ccncc6)CC5)cc4)cccc3C2=O)C(=O)N1 (stereo not given)
89 | 105 to 106 °C | Nc1cccc(C#CC=Cc2cccc(N)c2)c1
90 | 166 to 168 °C | O=[N+]([O-])c1oc2c(CC(CO)CO)cccc2c1-c1ccccc1
91 | 127 to 129 °C | CCCc1[nH]c2cc(C(=O)OC)ccc2c1C(=O)COC
92 | 124 °C | COc1ccc(-c2nc(CCCCCCc3nnn[nH]3)oc2-c2ccc(OC)cc2)cc1
93 | 158 to 159 °C | Cc1cccc(COc2cccc(OCc3coc(C4CCCCC4)n3)c2)c1C(=O)O
94 | 155 to 157 °C | CCOC(=O)c1cc2c(C(=O)CN(Cc3ccccc3)C(C)(C)C)ccc(OCc3ccccc3)c2[nH]1
95 | 132 to 135 °C | COCOc1ccccc1-c1ccc(-c2ccc(C(=O)O)cc2)cc1-c1ccc2c(c1)C(C)(C)CCC2(C)C

Row | SMILES | melting point
96 | O=c1c2cccc(O)c2nc(-c2ccc(OCCCl)cc2)n1-c1ccc(O)cc1 | 188 to 190 °C
97 | O=C(c1ccccc1)C1CCN1C(c1ccccc1)c1ccccc1 (stereo not given) | 114 to 115 °C
98 | CCc1cc2c(s1)N=C(NNC(=O)NC)CN=C2c1ccccc1Cl | 213 to 215 °C
99 | O=C(NC1N=C(c2ccccc2F)c2ccccc2NC1=O)c1ccccc1 (racemic) | 243 to 244 °C
100 | CN1CC(CNCCC#N)CC2c3cccc4[nH]cc(c34)CC21 (stereo not given) | 169 to 171 °C
